{
  "source": "patent US20150342165A1",
  "about": "“HUMANIZED MOUSE AND METHODS OF USING THE SAME” (City of Hope, priority 2014, published 2015)",
  "tested_on": "GM-HSPC and their progeny",
  "settings": "for Enrichment of frequency of CD45+/GFP+ cells in spleen and bone marrow: necropsy 11 weeks after transplantation",
  "description": "All animals except control mice received 20 mg/kg O^6BG (Sigma-Aldrich, St. Louis, Mo.) followed by 5 mg/kg BCNU (Sigma-Aldrich, St. Louis, Mo.) mouse 1.5 hour later via IP injection. Drug doses were administered at either at the 7th and 8th or 7th, 8th, and 9th weeks post-transplantation. O^6BG was prepared in 35% PEG-400 (Sigma-Aldrich, St. Louis, Mo.) and 60% injectable saline.\nLentiviral vector was produced by calcium phosphate precipitation in HEK293T cells as previously described by Li M J et al. (2005). CD34+ cells were pre-stimulated overnight in SFT6. Lentiviral transduction was conducted at 1×10^6 cells/mL on Retronectin™ (Takara, Otsu-Shiga Japan)-coated non-tissue culture T-75 flask for 24 h in the presence of […] rapamycin (Sigma-Aldrich, St. Louis, Mo.). Lentivirus and rapamycin were removed and cells were washed once before being resuspended for transplantation in 0.9% NaCl saline solution with Fc/IL-7 as described above.\nMice were necropsied at 16 or 25 weeks post transplantation for analysis of engraftment. Single cell suspensions of bone marrow (femurs) and spleen were prepared by mechanical dissociation and red cells lysed using ACK lysis Buffer (Sigma-Aldrich, St. Louis, Mo.). All cell suspensions were pre-treated with human immunoglobulin (GammaGard, Baxter Healthcare Corp. Deerfield, Ill.) for 30 minutes to block nonspecific antibody staining. Cell suspensions were stained with a human pan-leukocyte antibody to CD45-PC5 (BioLegendR, San Diego, Calif.), and lineage specific antihuman, CD3-ECD, CD4-APC, CD14-APC-Alexa-750, CD19-PE (Invitrogen, Carlsbad, Calif.), and CD8β-PC5 (Beckman Coulter, Brea, Calif.), for 20 minutes and washed 2 times with 1 mL of PBS containing 0.1% BSA (Sigma-Aldrich, St Louis, Mo.). BM cells were stained with antibodies to human CD45-PC5, CD34-PC7, CD45-ECD (Beckman Coulter, Brea, Calif.), CD33-PC5 (BD Biosciences, San Diego, Calif.), CD19-PE, and CD14-APC-Alexa750 (Invitrogen, Carlsbad, Calif.) for 20 minutes and washed 2 times with 1 mL of PBS containing 0.1% BSA. To establish analytical gates and background staining, bone marrow and spleen samples from 2-3 mice that received no human cells mice were stained with the same antibody panel. Samples were analyzed using a Gallios flow cytometer (Beckman Coulter, Hialeah, Fla.) and data analyzed with FCS Express software (De Novo Software, Los Angeles, Calif.).\nLentiviral vectors expressing unique combinations of small anti-HIV RNAs expressed from a naturally occurring micro RNA cluster (MCM-7) are known. See Chung J, et al. Endogenous MCMI microRNA cluster as a novel platform to multiplex small interfering and nucleolar RNAs for combinational HIV-1 gene therapy. Human gene therapy. 2012; 23:1200-1208. […] CD34+ HSPC were transduced with this vector and used to transplant NSG mice as described in materials and methods. Animals were treated with O^6BG and BCNU at weeks 7 and 8 (2× treatment) or weeks 7, 8 and 9 (3× treatment) following transplantation. Two weeks later (11 weeks following transplantation) animals were necropsied and the level of engraftment of the spleen and bone marrow were determined.",
  "key": {"[1]": {"settings": "second experiment, different donor, 7 weeks recovery with weekly Fc/IL-7"}},
  "note": "Where two headings read alike, the source gives them in different places.",
  "data": [
    {"substance": "O^6-benzylguanine; bis-chloronitrosourea [O^6BG/BCNU]", "values": [
      {"measurement": "Enrichment in GM progeny in bone marrow and spleen", "setting": "2-3 rounds of treatment", "value": "4-8 fold"},
      {"measurement": "Engraftment of spleen and bone marrow with human cells relative to untreated control", "setting": "2× and 3× treated animals, p<0.0001", "value": "reduced"},
      {"measurement": "Enrichment of frequency of CD45+/GFP+ cells in spleen and bone marrow", "setting": "2× treatment (weeks 7 and 8)", "value": 10, "unit": "fold"},
      {"measurement": "Enrichment of frequency of CD45+/GFP+ cells in spleen and bone marrow", "setting": "3× treatment (weeks 7, 8 and 9)", "value": 15, "unit": "fold"},
      {"measurement": "CD45+ cells in bone marrow and spleen", "setting": "[1]", "value": "depletion"},
      {"measurement": "Enrichment of CD3+/CD4+/GFP+ T-cells", "setting": "[1]", "value": "no significant enrichment"},
      {"measurement": "Frequency of CD45+/GFP+ human cells and CD14+/CD4+/GFP+ monocytes", "setting": "[1]", "value": "concomitant increase"},
      {"measurement": "Increase of CD4+/CD14+/GFP+ monocytes in the spleens", "setting": "three treatments", "value": 3, "unit": "fold"},
      {"measurement": "Increase of average frequency of CD3+/CD4+ T-cells in the spleen", "setting": "treatment performed three times", "value": 3, "unit": "fold"}
    ]}
  ]
}
